Source: patent US20230111310A1, “CARBOXYLIC ACID DERIVATIVE-SUBSTITUTED IMINO ARYL COMPOUND, PREPARATION METHOD THEREFOR, HERBICIDAL COMPOSITION AND USE THEREOF” (Qingdao Kingagroot Chemical Compound Co., Ltd., priority 2020, published 2023)

System: Echinochloa crusgalli
Test: Weeding effect in post-emergence stage
Format: in vivo
Conditions: Dose 15 g/ha; fresh weight control rate level
How it was run: (§1)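 Read-out is growth control rate, counted 3 weeks post-spray and averaged over three repeats. Greenhouse plants at the 2-3 leaf stage received spray-tower application at 500, 250, 125, 60, 30, 15 or 7.5 g/ha, with methyl oleate EC (1.5 liter/ha) and Tween 80 added.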

Question: For COC(=O)C(C)SN=Cc1cc(-n2c(=O)n(C)c(=S)n(C)c2=O)c(F)cc1Cl (stereo not drawn) [Compound 692], which “Weeding effect in post-emergence stage, Echinochloa crusgalli (level)” value (from here on “Weeding effect … Echinochloa crusgalli (level)”) is on record?
Answer: 5 (Level 5: growth control rate is above 85%)

Question: COC(=O)C(C)SN=Cc1cc(-n2c(=O)cc(C(F)(F)F)n(C)c2=O)c(F)cc1Cl (stereo not drawn) [Compound 730] was tested. Which “Weeding effect … Echinochloa crusgalli (level)” value did it give?
Answer: 5 (Level 5: growth control rate is above 85%)

Question: Which “Weeding effect … Echinochloa crusgalli (level)” value does the source give for CO/N=C/c1cc(-n2c(=O)n(C)c(=S)n(C)c2=O)c(F)cc1Cl [Control compound A, reference compound] here?
Answer: 0 (Level 0: growth control rate is less than 5%)

Same assay, conditions: Dose 30 g/ha; fresh weight control rate level

Question: How did the “Weeding effect … Echinochloa crusgalli (level)” value turn out when COC(=O)C(C)NN=Cc1cc(-n2c(=O)n(C)c(=S)n(C)c2=O)c(F)cc1Cl (stereo not drawn) [Compound 881] was run?
Answer: 5 (Level 5: growth control rate is above 85%)

Question: CC(C)OC(=O)C(C)N(C)N=Cc1cc(-n2c(=O)n(C)c(=S)n(C)c2=O)c(F)cc1Cl (stereo not drawn) [Compound 885] was tested. Which “Weeding effect … Echinochloa crusgalli (level)” value did it give?
Answer: 5 (Level 5: growth control rate is above 85%)

Question: Which “Weeding effect … Echinochloa crusgalli (level)” value does the source give for COC(=O)C(C)NN=Cc1cc(-n2c(=O)cc(C(F)(F)F)n(C)c2=O)c(F)cc1Cl (stereo not drawn) [Compound 919] here?
Answer: 5 (Level 5: growth control rate is above 85%)

System: Setaria viridis
Test: Weeding effect in post-emergence stage
Format: in vivo
Conditions: Dose 15 g/ha; fresh weight control rate level
How it was run: as §1

Question: How did the “Weeding effect in post-emergence stage, Setaria viridis (level)” value (“Weeding effect … Setaria viridis (level)” for short) turn out when COC(=O)C(C)SN=Cc1cc(-n2c(=O)n(C)c(=S)n(C)c2=O)c(F)cc1Cl (stereo not drawn) [Compound 692] was run?
Answer: 5 (Level 5: growth control rate is above 85%)

Question: COC(=O)C(C)SN=Cc1cc(-n2c(=O)cc(C(F)(F)F)n(C)c2=O)c(F)cc1Cl (stereo not drawn) [Compound 730] was tested. Which “Weeding effect … Setaria viridis (level)” value did it give?
Answer: 5 (Level 5: growth control rate is above 85%)

Question: Which “Weeding effect … Setaria viridis (level)” value does the source give for CO/N=C/c1cc(-n2c(=O)n(C)c(=S)n(C)c2=O)c(F)cc1Cl [Control compound A, reference compound] here?
Answer: 1 (Level 1: growth control rate is greater than or equal to 5% and less than 20%)

Same assay, conditions: Dose 30 g/ha; fresh weight control rate level

Question: With COC(=O)C(C)NN=Cc1cc(-n2c(=O)n(C)c(=S)n(C)c2=O)c(F)cc1Cl (stereo not drawn) [Compound 881] as the compound, how does the “Weeding effect … Setaria viridis (level)” value read?
Answer: 5 (Level 5: growth control rate is above 85%)

Question: Which “Weeding effect … Setaria viridis (level)” value does the source give for CC(C)OC(=O)C(C)N(C)N=Cc1cc(-n2c(=O)n(C)c(=S)n(C)c2=O)c(F)cc1Cl (stereo not drawn) [Compound 885] here?
Answer: 5 (Level 5: growth control rate is above 85%)

Question: How did the “Weeding effect … Setaria viridis (level)” value turn out when COC(=O)C(C)NN=Cc1cc(-n2c(=O)cc(C(F)(F)F)n(C)c2=O)c(F)cc1Cl (stereo not drawn) [Compound 919] was run?
Answer: 5 (Level 5: growth control rate is above 85%)

System: Eleusine indica
Test: Weeding effect in post-emergence stage
Format: in vivo
Conditions: Dose 15 g/ha; fresh weight control rate level
How it was run: as §1

Question: For COC(=O)C(C)SN=Cc1cc(-n2c(=O)n(C)c(=S)n(C)c2=O)c(F)cc1Cl (stereo not drawn) [Compound 692], which “Weeding effect in post-emergence stage, Eleusine indica (level)” value (shortened to “Weeding effect … Eleusine indica (level)”) is on record?
Answer: 5 (Level 5: growth control rate is above 85%)

Question: For COC(=O)C(C)SN=Cc1cc(-n2c(=O)cc(C(F)(F)F)n(C)c2=O)c(F)cc1Cl (stereo not drawn) [Compound 730], which “Weeding effect … Eleusine indica (level)” value is on record?
Answer: 5 (Level 5: growth control rate is above 85%)

Question: Which “Weeding effect … Eleusine indica (level)” value does the source give for CO/N=C/c1cc(-n2c(=O)n(C)c(=S)n(C)c2=O)c(F)cc1Cl [Control compound A, reference compound] here?
Answer: 1 (Level 1: growth control rate is greater than or equal to 5% and less than 20%)

Same assay, conditions: Dose 30 g/ha; fresh weight control rate level

Question: For COC(=O)C(C)NN=Cc1cc(-n2c(=O)n(C)c(=S)n(C)c2=O)c(F)cc1Cl (stereo not drawn) [Compound 881], which “Weeding effect … Eleusine indica (level)” value is on record?
Answer: 5 (Level 5: growth control rate is above 85%)

Question: Which “Weeding effect … Eleusine indica (level)” value does the source give for CC(C)OC(=O)C(C)N(C)N=Cc1cc(-n2c(=O)n(C)c(=S)n(C)c2=O)c(F)cc1Cl (stereo not drawn) [Compound 885] here?
Answer: 5 (Level 5: growth control rate is above 85%)

Question: Which “Weeding effect … Eleusine indica (level)” value does the source give for COC(=O)C(C)NN=Cc1cc(-n2c(=O)cc(C(F)(F)F)n(C)c2=O)c(F)cc1Cl (stereo not drawn) [Compound 919] here?
Answer: 5 (Level 5: growth control rate is above 85%)

System: Digitaria sanguinalis
Test: Weeding effect in post-emergence stage
Format: in vivo
Conditions: Dose 15 g/ha; fresh weight control rate level
How it was run: as §1

Question: For COC(=O)C(C)SN=Cc1cc(-n2c(=O)n(C)c(=S)n(C)c2=O)c(F)cc1Cl (stereo not drawn) [Compound 692], which “Weeding effect in post-emergence stage, Digitaria sanguinalis (level)” value (“Weeding effect … Digitaria sanguinalis (level)” below) is on record?
Answer: 5 (Level 5: growth control rate is above 85%)

Question: COC(=O)C(C)SN=Cc1cc(-n2c(=O)cc(C(F)(F)F)n(C)c2=O)c(F)cc1Cl (stereo not drawn) [Compound 730] was tested. Which “Weeding effect … Digitaria sanguinalis (level)” value did it give?
Answer: 5 (Level 5: growth control rate is above 85%)

Question: For CO/N=C/c1cc(-n2c(=O)n(C)c(=S)n(C)c2=O)c(F)cc1Cl [Control compound A, reference compound], which “Weeding effect … Digitaria sanguinalis (level)” value is on record?
Answer: 1 (Level 1: growth control rate is greater than or equal to 5% and less than 20%)

Same assay, conditions: Dose 30 g/ha; fresh weight control rate level

Question: COC(=O)C(C)NN=Cc1cc(-n2c(=O)n(C)c(=S)n(C)c2=O)c(F)cc1Cl (stereo not drawn) [Compound 881] was tested. Which “Weeding effect … Digitaria sanguinalis (level)” value did it give?
Answer: 5 (Level 5: growth control rate is above 85%)

Question: With CC(C)OC(=O)C(C)N(C)N=Cc1cc(-n2c(=O)n(C)c(=S)n(C)c2=O)c(F)cc1Cl (stereo not drawn) [Compound 885] as the compound, how does the “Weeding effect … Digitaria sanguinalis (level)” value read?
Answer: 5 (Level 5: growth control rate is above 85%)

Question: For COC(=O)C(C)NN=Cc1cc(-n2c(=O)cc(C(F)(F)F)n(C)c2=O)c(F)cc1Cl (stereo not drawn) [Compound 919], which “Weeding effect … Digitaria sanguinalis (level)” value is on record?
Answer: 5 (Level 5: growth control rate is above 85%)

System: Alopecurus japonicus
Test: Weeding effect in post-emergence stage
Format: in vivo
Conditions: Dose 15 g/ha; fresh weight control rate level
How it was run: as §1

Question: Which “Weeding effect in post-emergence stage, Alopecurus japonicus (level)” value (“Weeding effect … Alopecurus japonicus (level)” below) does the source give for COC(=O)C(C)SN=Cc1cc(-n2c(=O)n(C)c(=S)n(C)c2=O)c(F)cc1Cl (stereo not drawn) [Compound 692] here?
Answer: 5 (Level 5: growth control rate is above 85%)

Question: How did the “Weeding effect … Alopecurus japonicus (level)” value turn out when COC(=O)C(C)SN=Cc1cc(-n2c(=O)cc(C(F)(F)F)n(C)c2=O)c(F)cc1Cl (stereo not drawn) [Compound 730] was run?
Answer: 5 (Level 5: growth control rate is above 85%)

Question: How did the “Weeding effect … Alopecurus japonicus (level)” value turn out when CO/N=C/c1cc(-n2c(=O)n(C)c(=S)n(C)c2=O)c(F)cc1Cl [Control compound A, reference compound] was run?
Answer: 0 (Level 0: growth control rate is less than 5%)

Same assay, conditions: Dose 30 g/ha; fresh weight control rate level

Question: COC(=O)C(C)NN=Cc1cc(-n2c(=O)n(C)c(=S)n(C)c2=O)c(F)cc1Cl (stereo not drawn) [Compound 881] was tested. Which “Weeding effect … Alopecurus japonicus (level)” value did it give?
Answer: 5 (Level 5: growth control rate is above 85%)

Question: CC(C)OC(=O)C(C)N(C)N=Cc1cc(-n2c(=O)n(C)c(=S)n(C)c2=O)c(F)cc1Cl (stereo not drawn) [Compound 885] was tested. Which “Weeding effect … Alopecurus japonicus (level)” value did it give?
Answer: 5 (Level 5: growth control rate is above 85%)

Question: Which “Weeding effect … Alopecurus japonicus (level)” value does the source give for COC(=O)C(C)NN=Cc1cc(-n2c(=O)cc(C(F)(F)F)n(C)c2=O)c(F)cc1Cl (stereo not drawn) [Compound 919] here?
Answer: 5 (Level 5: growth control rate is above 85%)

System: Abutilon theophrasti
Test: Weeding effect in post-emergence stage
Format: in vivo
Conditions: Dose 15 g/ha; fresh weight control rate level
How it was run: as §1

Question: Which “Weeding effect in post-emergence stage, Abutilon theophrasti (level)” value (shortened to “Weeding effect … Abutilon theophrasti (level)”) does the source give for COC(=O)C(C)SN=Cc1cc(-n2c(=O)n(C)c(=S)n(C)c2=O)c(F)cc1Cl (stereo not drawn) [Compound 692] here?
Answer: 5 (Level 5: growth control rate is above 85%)

Question: For COC(=O)C(C)SN=Cc1cc(-n2c(=O)cc(C(F)(F)F)n(C)c2=O)c(F)cc1Cl (stereo not drawn) [Compound 730], which “Weeding effect … Abutilon theophrasti (level)” value is on record?
Answer: 5 (Level 5: growth control rate is above 85%)

Question: For CO/N=C/c1cc(-n2c(=O)n(C)c(=S)n(C)c2=O)c(F)cc1Cl [Control compound A, reference compound], which “Weeding effect … Abutilon theophrasti (level)” value is on record?
Answer: 3 (Level 3: growth control rate is greater than or equal to 40% and less than 60%)

Same assay, conditions: Dose 30 g/ha; fresh weight control rate level

Question: With COC(=O)C(C)NN=Cc1cc(-n2c(=O)n(C)c(=S)n(C)c2=O)c(F)cc1Cl (stereo not drawn) [Compound 881] as the compound, how does the “Weeding effect … Abutilon theophrasti (level)” value read?
Answer: 5 (Level 5: growth control rate is above 85%)

Question: For CC(C)OC(=O)C(C)N(C)N=Cc1cc(-n2c(=O)n(C)c(=S)n(C)c2=O)c(F)cc1Cl (stereo not drawn) [Compound 885], which “Weeding effect … Abutilon theophrasti (level)” value is on record?
Answer: 5 (Level 5: growth control rate is above 85%)

Question: How did the “Weeding effect … Abutilon theophrasti (level)” value turn out when COC(=O)C(C)NN=Cc1cc(-n2c(=O)cc(C(F)(F)F)n(C)c2=O)c(F)cc1Cl (stereo not drawn) [Compound 919] was run?
Answer: 5 (Level 5: growth control rate is above 85%)
